Measured values as given in patent publication US20060287320A1, “Preparation of thioarabinofuranosyl compounds and use thereof” (Southern Research Institute, priority 1998, published 2006).

What was measured:
SC Colon 36 Tumor = assay: Response of SC Colon 36 Tumor to Treatment; assay type: in vivo; details: 8 Mg/Kg IP, Q 4H × 3 day 9-17
Protocol: (§1) The following in vivo tests were carried out to illustrate the effectiveness of the compounds of the present invention.

[1] = tested on: DNA synthesis in CEM cells; assay: Effect on DNA synthesis ([3H]dThd incorporation) in CEM cells; assay type: cell-based; details: Homo sapiens, CCRF-CEM, 750 nM, average of two experiments, read-out: DNA synthesis, Percent of control
Protocol: (§2) Radiolabeled precursors of DNA [^3H]dThd, RNA ([^3H]Urd), or protein ([^3H]leucine) were added to each treatment 30 minutes after the addition of each compound. Samples were taken 1, 2, 3 and 4 hours after the addition of radiolabeled precursors, and the incorporation of radioactivity into RNA, DNA, or protein were determined as described (Parker et al, Biochem. Pharmacol. 55: 1673-1681, 1998). Each number represents the average of two experiments.

araC-resistant CEM cells [2] = assay: Inhibition of CEM cell growth, araC-resistant
Protocol: (§7) CEM cells were incubated with various concentrations of each compound and the effect on. cell numbers was determined using a Coulter Counter. The IC50 was determined from a plot of the percent of control growth versus drug concentration. The data presented are the mean and standard deviation from 3 separate experiments.

SK-MEL 28 Melanoma = assay: In vitro IC50, 72 hour exposure, SRB assay; assay type: cell-based; details: Homo sapiens, read-out: IC50 Molar Values
Protocol: (§3) EXAMPLE 3 The following in vitro tests were carried out.
(§4) The above tests were carried out with a 72 hour exposure to the compound using Natural Red assay for all cell lines except SK-MEL 28 which was done with SRB assay.

[3] = biological target: T1, dCyd Kinase Activity Isolated from Molt-4 Cells (Homo sapiens, UniProt P27707); assay: Substrate characteristics with dCyd kinase activity isolated from Molt-4 cells; assay type: biochemical; details: dCyd kinase activity from Molt-4 cells
T1 construct: endogenous in cells; host or cells: Molt-4 cells (enzyme purified from the cells)
T1 sequence (P27707 whole entry): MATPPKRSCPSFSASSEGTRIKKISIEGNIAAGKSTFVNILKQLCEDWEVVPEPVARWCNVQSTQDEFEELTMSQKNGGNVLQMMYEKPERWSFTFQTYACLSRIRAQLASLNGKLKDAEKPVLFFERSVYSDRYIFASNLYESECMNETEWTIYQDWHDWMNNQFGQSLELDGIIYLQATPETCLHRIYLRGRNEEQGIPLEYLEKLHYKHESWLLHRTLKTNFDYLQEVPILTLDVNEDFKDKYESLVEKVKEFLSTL
Protocol: Each assay was done in duplicate and the kinetic constants were determined from linear double-reciprocal plots of 1/velocity versus 1/concentration of the substrate. The best line was determined by linear regression from at least 5 datum points, and the Km and Vmax were determined from the x and y intercepts.

[4] = tested on: protein synthesis in CEM cells; assay: Effect on protein synthesis ([3H]leucine incorporation) in CEM cells; assay type: cell-based; details: Homo sapiens, CCRF-CEM, 750 nM, average of two experiments, read-out: protein synthesis, Percent of control
Protocol: as §2

SC HCT-116 Colon Tumor = assay: Response of SC HCT-116 Colon Tumor to Treatment; assay type: in vivo; details: Q 4H × 3 day 6-14
Protocol: as §1

CEM cells (wild-type) [5] = assay: Metabolism of dCyd and analogs in wild-type CEM cells; assay type: cell-based; details: WT CEM cells; 100 nM; incubation time 1 hour
Protocol: (§5) The radioactivity in the 5′-triphosphate peak and the incorporation of radioactivity in the acid-insoluble fraction (DNA) was determined.

CEM cells [6] = assay: Effect of F-dUrd on metabolism (deamination) in CEM cells; assay type: cell-based; details: 100 nM, incubation time 24 hours
Protocol: The complete metabolism of each compound was determined as described in the legend to Table 12, and the percent of deaminated metabolites for each compound was determined.

CEM cells [7] = assay: Complete metabolism of dCyd, T-dCyd, araC and T-araC in CEM cells; assay type: cell-based; details: 100 nM, incubation 24 hours
Protocol: The complete metabolism of each compound was determined: The medium was analyzed for the original compound, its deaminated form using reverse phase HPLC, and H20; the acid-soluble extract was analyzed by SAX HPLC for phosphorylated metabolites; and the incorporation of radioactivity into acid-precipitable material (DNA) was determined.

[8] = tested on: RNA synthesis in CEM cells; assay: Effect on RNA synthesis ([3H]Urd incorporation) in CEM cells; assay type: cell-based; details: 750 nM, average of two experiments
Protocol: as §2

[9] = Phosphorylation in cell-free CEM extracts, araC-resistant; assay type: biochemical
Protocol: (§6) The number in parentheses is the number of experiments performed. […] At various times after the initiation of the experiment, an aliquot of each reaction volume was removed and placed on DE-81 filters. The filters were washed with 1 mM ammonium formate and ethanol, and the amount of radioactivity on each filter was determined. […] This assay was verified by HPLC.

DLD-1 Colon = assay: In vitro IC50, 72 hour exposure, Natural Red assay; assay type: cell-based; details: Homo sapiens, read-out: IC50 Molar Values
Protocol: as §3, §4

CAK1-1 Renal = assay: In vitro IC50, 72 hour exposure, Natural Red assay; assay type: cell-based; details: read-out: IC50 Molar Values
Protocol: as §3, §4

SNB-7 (CNS) = assay: In vitro IC50, 72 hour exposure, Natural Red assay; assay type: cell-based; details: Homo sapiens, read-out: IC50 Molar Values
Protocol: as §3, §4

ZR-75-1 Mammary = assay: In vitro IC50, 72 hour exposure, Natural Red assay; assay type: cell-based; details: Homo sapiens, read-out: IC50 Molar Values
Protocol: as §3, §4

PC-3 Prostate = assay: In vitro IC50, 72 hour exposure, Natural Red assay; assay type: cell-based; details: read-out: IC50 Molar Values
Protocol: as §3, §4

NC1-H23 Lung = assay: In vitro IC50, 72 hour exposure, Natural Red assay; assay type: cell-based; details: read-out: IC50 Molar Values
Protocol: as §3, §4

LOX IMV1 Melanoma = assay: In vitro IC50, 72 hour exposure, Natural Red assay; assay type: cell-based; details: read-out: IC50 Molar Values
Protocol: as §3, §4

[10] = Phosphorylation in cell-free CEM extracts, wild-type; assay type: biochemical; details: wild-type CEM cell extract; 1 μm substrate
Protocol: as §6

araC-resistant CEM cells [11] = assay: Metabolism of dCyd and analogs in araC-resistant CEM cells; assay type: cell-based; details: 100 nM, incubation time 1 hour
Protocol: as §5

SC CAKI-1 Renal Tumor = assay: Response of SC CAKI-1 Renal Tumor to Treatment; assay type: in vivo; details: Q 4H × 3 day 7-15
Protocol: as §1

CEM cells (wild-type) [12] = assay: Inhibition of CEM cell growth, wild-type; details: Homo sapiens, CCRF-CEM, read-out: IC50 (nM) Wild-type
Protocol: as §7

For `Nc1ccn([C@@H]2S[C@H](CO)[C@@H](O)[C@@H]2O)c(=O)n1` [T-araC, 1-(4-Thio-β-D-arabinofuranosyl) cytosine], the “Days Delay (T − C)” value (SC Colon 36 Tumor) was >38.5 days, the “Days to 2 Doubling” value (SC Colon 36 Tumor) was >49.0 days and the “Non-Specific Deaths/Total” value (SC Colon 36 Tumor) was 0/5. For the same molecule, the “Tumor Free Surv/Total” value (SC Colon 36 Tumor) was 4/5, the “Tumor Regression Number of Complete” value (SC Colon 36 Tumor) was 4 and the “Tumor Regression Number of Partial” value (SC Colon 36 Tumor) was 0. It also gave an activity at 0.75 µM [1] of 16%, an IC50 (araC-resistant CEM cells [2]; Homo sapiens, CCRF-CEM, read-out: IC50 (nM) araC-resistant) of 125 ± 84 nM and a Resistant/WT (araC-resistant CEM cells [2]; ratio of IC50 araC-resistant / wild-type CEM cells) of 5. The IC50 (SK-MEL 28 Melanoma) was 7 µM, the “Relative Vmax” value [3] was 0.46 and the activity at 0.75 µM [4] was 72%. The “Days Delay (T − C)” value (SC HCT-116 Colon Tumor; 13.3 Mg/Kg IP) was >43.1 days, the “Days to 2 Doubling” value (SC HCT-116 Colon Tumor; 13.3 Mg/Kg IP) was >52.0 days and the “Non-Specific Deaths/Total” value (SC HCT-116 Colon Tumor; 13.3 Mg/Kg IP) was 0/6. For the same molecule, the “Tumor Free Surv/Total” value (SC HCT-116 Colon Tumor; 13.3 Mg/Kg IP) was 5/6, the “Tumor Regression Duration Med” value (SC HCT-116 Colon Tumor; 13.3 Mg/Kg IP) was 23.6 days and the “Tumor Regression Duration Range (Days)” value (SC HCT-116 Colon Tumor; 13.3 Mg/Kg IP) was 24-24 Days. The “Tumor Regression Number of Complete” value (SC HCT-116 Colon Tumor; 13.3 Mg/Kg IP) was 6, the “Tumor Regression Number of Partial” value (SC HCT-116 Colon Tumor; 13.3 Mg/Kg IP) was 0 and the “Days Delay (T − C)” value (SC HCT-116 Colon Tumor; 20 Mg/Kg IP) was >43.1 days. For the same molecule, the “Days to 2 Doubling” value (SC HCT-116 Colon Tumor; 20 Mg/Kg IP) was >52.0 days, the “Non-Specific Deaths/Total” value (SC HCT-116 Colon Tumor; 20 Mg/Kg IP) was 0/6 and the “Tumor Free Surv/Total” value (SC HCT-116 Colon Tumor; 20 Mg/Kg IP) was 6/6. For the same molecule, the “Tumor Regression Number of Complete” value (SC HCT-116 Colon Tumor; 20 Mg/Kg IP) was 6, the “Tumor Regression Number of Partial” value (SC HCT-116 Colon Tumor; 20 Mg/Kg IP) was 0 and the DNA (CEM cells (wild-type) [5]) was 0.0056 pmoles/10^6 cells. The Total (CEM cells (wild-type) [5]) was 0.2076 pmoles/10^6 cells, the “Percent Deamination” value (CEM cells [6]; F-dUrd 0 μM) was 0% and the “Percent Deamination” value (CEM cells [6]; F-dUrd 10 μM) was 0%. For the same molecule, the “DNA (percent of total)” value (CEM cells [7]) was 0.3% of total, the “Original Compound (percent of total)” value (CEM cells [7]) was 96% of total and the “RNA synthesis, Percent of control” value [8] was 87% of control. The “Phosphorylation, araC-resistant CEM cells” value ([9]; araC-resistant CEM cell extract, 1 μm substrate) was 0.011 pmoles/mg protein/minute, the Percent of wild-type ([9]; phosphorylation in araC-resistant vs wild-type CEM extract) was 1.3% of wild-type and the IC50 (DLD-1 Colon) was 7 µM. It also gave an IC50 (CAK1-1 Renal) of 3 µM, an IC50 (SNB-7 (CNS)) of 1 µM and an IC50 (ZR-75-1 Mammary) of 3 µM. For the same molecule, the IC50 (PC-3 Prostate) was 8 µM, the IC50 (NC1-H23 Lung) was 5 µM and the IC50 (LOX IMV1 Melanoma) was 7 µM. For the same molecule, the “Phosphorylation, Wild-type” value [10] was 0.83 pmoles/mg protein/minute, the DNA (araC-resistant CEM cells [11]) was 0.0025 pmoles/10^6 cells and the “DNA (percent of WT)” value (araC-resistant CEM cells [11]) was 45% of WT. The Total (araC-resistant CEM cells [11]) was 0.0535 pmoles/10^6 cells, the “Total (percent of WT)” value (araC-resistant CEM cells [11]) was 26% of WT and the “Days Delay (T − C)” value (SC CAKI-1 Renal Tumor; 8 Mg/Kg IP) was 41.2 days. The “Days to 3 Doubling” value (SC CAKI-1 Renal Tumor; 8 Mg/Kg IP) was 50.7 days, the “Non-Specific Deaths/Total” value (SC CAKI-1 Renal Tumor; 8 Mg/Kg IP) was 0/6 and the “Tumor Free Surv/Total” value (SC CAKI-1 Renal Tumor; 8 Mg/Kg IP) was 0/6. For the same molecule, the “Tumor Regression Duration Med” value (SC CAKI-1 Renal Tumor; 8 Mg/Kg IP) was 12.7 days, the “Tumor Regression Duration Range” value (SC CAKI-1 Renal Tumor; 8 Mg/Kg IP) was 9 to 18 days and the “Tumor Regression Number of Complete” value (SC CAKI-1 Renal Tumor; 8 Mg/Kg IP) was 4. The “Tumor Regression Number of Partial” value (SC CAKI-1 Renal Tumor; 8 Mg/Kg IP) was 1, the “Days Delay (T − C)” value (SC CAKI-1 Renal Tumor; 16 Mg/Kg IP) was 50.3 days and the “Days to 3 Doubling” value (SC CAKI-1 Renal Tumor; 16 Mg/Kg IP) was 59.8 days. For the same molecule, the “Non-Specific Deaths/Total” value (SC CAKI-1 Renal Tumor; 16 Mg/Kg IP) was 1/6, the “Tumor Free Surv/Total” value (SC CAKI-1 Renal Tumor; 16 Mg/Kg IP) was 0/6 and the “Tumor Regression Duration Med” value (SC CAKI-1 Renal Tumor; 16 Mg/Kg IP) was 26.9 days. The “Tumor Regression Duration Range” value (SC CAKI-1 Renal Tumor; 16 Mg/Kg IP) was 16 to 48 days, the “Tumor Regression Number of Complete” value (SC CAKI-1 Renal Tumor; 16 Mg/Kg IP) was 5 and the “Tumor Regression Number of Partial” value (SC CAKI-1 Renal Tumor; 16 Mg/Kg IP) was 0. It also gave an IC50 (CEM cells (wild-type) [12]) of 24 ± 9 nM.
